The target in assay [1] is LMP7 subunit of the immunoproteasome (Homo sapiens, UniProt P20618+P28062). As to conditions: Singh et al, Br. J. Hematology 152(2): 155-163; cited from earlier work.
In assay [2] the target is Beta5 (purified human constitutive proteasome) (Homo sapiens, UniProt P20618+P28074). The assay can be described thus: Determination of Beta5 activity (fluorescence intensity assay, Suc-LLVY-AMC). Format: biochemical. The note with it: purified human constitutive proteasome 1.25 nM, incubation for 20 minutes at 25° C., Suc-LLVY-AMC 40 μM. On the procedure:
Determination of Beta5 Activity:
Measurement of Beta5 inhibition is performed in 384 well format based on fluorescence intensity assay.
(§1) Purified human constitutive proteasome (1.25 nM) and serial diluted compounds in DMSO (range of concentrations from 30 μM to […]) or controls are incubated for 20 minutes or 120 minutes (long incubation) at 25° C. in assay buffer containing 50 mM Tris pH 7.4, 0.03% SDS, 1 mM EDTA and 1% DMSO. The reaction is initiated by the addition of the fluorogenic peptide substrate, Suc-LLVY-AMC (Bachem 1-1395), at a concentration of 40 μM. After 60 minutes of incubation at 37° C., fluorescence intensity is measured at λex=350 nm and λem=450 nm with a fluorescence reader (Perkin Elmer Envision reader or equivalent).
(§2) Unless indicated otherwise the results are obtained after incubation for 20 minutes.

The target in assay [3] is LMP7 (purified human immuno proteasome) (Homo sapiens, UniProt P20618+P28062). The assay can be described thus: Determination of LMP7 activity (fluorescence intensity assay, Suc-LLVY-AMC). Format: biochemical. The note with it: for Selectivity LMP7 vs Beta5: LMP7 versus Beta5, incubation for 20 minutes; for pIC50: purified human immuno proteasome 0.25 nM, incubation for 20 minutes at 25° C., Suc-LLVY-AMC 40 μM. On the procedure:
Determination of LMP7 Activity:
Measurement of LMP7 inhibition is performed in 384 well format based on fluorescence intensity assay.
as §1, with “immuno” for “constitutive”, “(0.25” for “(1.25”
as §2

pIC50: −log10 of the molar value. Where only a bound is given, the exact number is not on record here.

Regarding `CC1=C(C(=O)N[C@H](C)C(=O)N[C@@H](Cc2c[nH]c3ccccc23)C(=O)N[C@@H](Cc2ccccc2)C(=O)[C@@]2(C)CO2)Cc2ccccc21` [PR-924], in assay [1], the “selective inhibitor of the LMP7 subunit of the immunoproteasome” value is reported as 100 fold.

As usually defined, the pIC50 is the negative decadic logarithm of the IC50, by convention in mol/L. Low readings indicate a large IC50, high ones a small IC50. Compound `O=C(N[C@@H](Cc1coc2ccccc12)B(O)O)C1SCCS1` [Compound 8, [(1R)-2-(benzofuran-3-yl)-1-(1,3-dithiolane-2-carbonylamino)ethyl]-boronic acid] showed a pIC50 in assay [2] of 5.30 to 6.30. In assay [3], the “Selectivity LMP7 vs Beta5” value is “++ (100 ≤ Selectivity < 300)” and the pIC50 was at least 7.30.

`CSCC(=O)N[C@@H](Cc1coc2c(C(F)(F)F)cccc12)B(O)O` [Compound 3, [(1R)-1-[(2-methyl-sulfanylacetyl)amino]-2-[7-(trifluoromethyl)-benzofuran-3-yl]ethyl]-boronic acid] showed a negative-log IC50 (pIC50) in assay [2] of 5.30 to 6.30. In assay [3], the “Selectivity LMP7 vs Beta5” value was “+++ (300 ≤ Selectivity < 500)” and the pIC50 is at least 7.30.

Compound `O=C(N[C@@H](Cc1coc2ccccc12)B(O)O)C1CCCS1` (stereo partly drawn) [Compound 17, [(1R)-2-(benzofuran-3-yl)-1-(tetrahydrothio-phene-2-carbonyl-amino)ethyl]boronic acid] gave a negative logarithm of the IC50 (pIC50) in assay [2] of 4.52 to 5.30. Further, in assay [3], the “Selectivity LMP7 vs Beta5” value is recorded as “++ (100 ≤ Selectivity < 300)” and the negative logarithm of the IC50 (pIC50) was at least 7.30.

`O=C(N[C@@H](Cc1coc2ccccc12)B(O)O)C1OCCc2ccccc21` (stereo partly drawn) [Compound 38, [(1R)-2-(benzofuran-3-yl)-1-(isochromane-1-carbonylamino)ethyl]-boronic acid]: the pIC50 is 5.30 to 6.30 in assay [2] and at least 7.30 in assay [3]. In addition, in assay [3], the “Selectivity LMP7 vs Beta5” value is reported as “+++ (300 ≤ Selectivity < 500)”.

The compound `O=C(N[C@@H](Cc1coc2ccccc12)B(O)O)[C@H]1CCCO1` [Compound 27, [(1R)-2-(benzofuran-3-yl)-1-[[(2R)-tetrahydro-furan-2-carbonyl]amino]-ethyl]boronic acid] gave a pIC50 in assay [2] of 5.30 to 6.30. In assay [3], the “Selectivity LMP7 vs Beta5” value is listed as “++ (100 ≤ Selectivity < 300)” and the pIC50 was at least 7.30.

Turning to `O=C(N[C@@H](Cc1coc2ccccc12)B(O)O)[C@@H]1COCCO1` [Compound 39, [(1R)-2-(benzofuran-3-yl)-1-[[(2S)-1,4-dioxane-2-carbonyl]-amino]ethyl]boronic acid], in assay [2], the pIC50 was 5.30 to 6.30. In assay [3], the “Selectivity LMP7 vs Beta5” value is given as “++ (100 ≤ Selectivity < 300)” and the pIC50 was at least 7.30.

The compound `CSCC(=O)N[C@@H](Cc1coc2c(F)cccc12)B(O)O` [Compound 12, [(1R)-2-(7-fluorobenzo-furan-3-yl)-1-[(2-methyl-sulfanylacetyl)amino]-ethyl]boronic acid] had a negative-log IC50 (pIC50) in assay [2] of 6.30 to 7.30. In assay [3], the “Selectivity LMP7 vs Beta5” value is “++ (100 ≤ Selectivity < 300)” and the pIC50 is at least 7.30.

Compound `CSCC(=O)N[C@H](Cc1coc2c(C)cccc12)B(O)O` [Compound 1, [(1S)-2-(7-methylbenzo-furan-3-yl)-1-[(2-methyl-sulfanylacetyl)amino]-ethyl]boronic acid] gave a pIC50 in assay [2] of 4.52 to 5.30. In addition, in assay [3], the “Selectivity LMP7 vs Beta5” value is “++ (100 ≤ Selectivity < 300)” and the pIC50 is 5.30 to 6.30.

In the case of `Cc1cccc2c(C[C@@H](NC(=O)[C@H]3CCCO3)B(O)O)coc12` [Compound 30], the pIC50 in assay [2] is 4.52 to 5.30; in assay [3] it was 6.30 to 7.30. Also, the “Selectivity LMP7 vs Beta5” value in assay [3] was “++ (100 ≤ Selectivity < 300)”.

For `O=C(N[C@@H](Cc1coc2ccccc12)B(O)O)C1OCCS1` (stereo partly drawn) [Compound 11, [(1R)-2-(benzofuran-3-yl)-1-(1,3-oxathiolane-2-carbonylamino)ethyl]-boronic acid], the figures for the pIC50 in assay [2] and in assay [3] were 6.30 to 7.30 and at least 7.30, respectively. The “Selectivity LMP7 vs Beta5” value in assay [3] was “++ (100 ≤ Selectivity < 300)”.

`CSCC(=O)N[C@H](Cc1coc2c(F)cccc12)B(O)O` [Compound 23] had a negative logarithm of the IC50 (pIC50) in assay [2] of 4.52 to 5.30. Moreover, in assay [3], the “Selectivity LMP7 vs Beta5” value is given as “++ (100 ≤ Selectivity < 300)” and the pIC50 is 6.30 to 7.30.

Consider `O=C(N[C@@H](Cc1coc2ccccc12)B(O)O)C1COc2ccccc21` (stereo partly drawn) [Compound 35, [(1R)-2-(benzofuran-3-yl)-1-(2,3-dihydrobenzo-furan-3-carbonylamino)-ethyl]boronic acid], for which the pIC50 in assay [2] was 5.30 to 6.30. In addition, in assay [3], the “Selectivity LMP7 vs Beta5” value is reported as “++++ (Selectivity ≥ 500)” and the pIC50 was at least 7.30.

In the case of `O=C(N[C@@H](Cc1coc2ccccc12)B(O)O)[C@H]1COCCO1` [Compound 40, [(1R)-2-(benzofuran-3-yl)-1-[[(2R)-1,4-dioxane-2-carbonyl]-amino]ethyl]boronic acid], the pIC50 in assay [2] is 5.30 to 6.30. In assay [3], the “Selectivity LMP7 vs Beta5” value was “+ (Selectivity <100)” and the pIC50 was at least 7.30.

In the case of `CSCC(=O)N[C@@H](Cc1coc2c(Cl)cccc12)B(O)O` [Compound 16, [(1R)-2-(7-chlorobenzo-furan-3-yl)-1-[(2-methylsulfanylacetyl)-amino]ethyl]boronic acid], the negative-log IC50 (pIC50) in assay [2] was 6.30 to 7.30; in assay [3], at least 7.30. For the same compound, in assay [3], the “Selectivity LMP7 vs Beta5” value was “++ (100 ≤ Selectivity < 300)”.

In assay [2], `CCSCC(=O)N[C@@H](Cc1coc2ccccc12)B(O)O` [Compound 13, [(1R)-2-(benzofuran-3-yl)-1-[(2-ethylsulfanyl-acetyl)amino]ethyl]-boronic acid] showed a pIC50 of 5.30 to 6.30. In assay [3], the “Selectivity LMP7 vs Beta5” value is listed as “+++ (300 ≤ Selectivity < 500)” and the pIC50 was at least 7.30.

The values are drawn from patent US20210317145A1, “Boronic Acid Derivatives” (Merck Patent GmbH, priority 2018, published 2021).
